Our source for the DSC exothermic peak values is patent US8388950B2, “Coenzyme Q10-containing water-soluble composition and process for production thereof” (Kaneka Corporation, priority 2005, dated 2013).

A short description of this data set: DSC determination of the crystallization peak of coenzyme Q10 (effect of preventing crystallization). It counts as physicochemical. As to conditions: held at 80° C. 10 minutes, cooled to −50° C. at −5° C./min. On the procedure:
The component materials shown in Table 1 were warmed and dissolved at 60° C., and weighed out the appropriate amount on a measuring aluminum pan to make samples for DSC determination.
Using the samples obtained in Reference Examples 1 to 10, the effect of preventing coenzyme Q10 crystallization derived from a lipophilic sucrose fatty acid ester was determined by DSC (differential scanning calorimetry).
Detector: DSC6220 (manufactured by SII Nano Technology Inc.)
Determination condition: the crystallization peak (exothermic peak) of coenzyme Q10 was determined after retaining the samples at 80° C. for 10 minutes and then cooling them to −50° C. at a cooling rate of −5° C./rain.

`COC1=C(OC)C(=O)C(C/C=C(\C)CC/C=C(\C)CC/C=C(\C)CC/C=C(\C)CC/C=C(\C)CC/C=C(\C)CC/C=C(\C)CC/C=C(\C)CC/C=C(\C)CCC=C(C)C)=C(C)C1=O` [compound 4, Coenzyme Q10] yielded a DSC exothermic peak of −11.4 °C.
